Reference: publication PMC7897990, “TriTOX: A novel Trichomonas vaginalis assay platform for high-throughput screening of compound libraries” (International Journal for Parasitology: Drugs and Drug …, 2021)
Where two headings read alike, the source gives them in different places.

Key:
[1] = tested on: Trichomonas vaginalis G3 trophozoites; details: HTS, parasite screen at 1 µg/mL; for T.vaginalis_Absorbance_Rep1: replicate 1, raw absorbance; for T.vaginalis_Absorbance_Rep2: replicate 2, raw absorbance
[2] = tested on: nontumorigenic neonatal foreskin fibroblast (NFF) cell line
[3] = tested on: Trichomonas vaginalis G3 trophozoites; experiment: microbe, parasite or virus in culture; details: 48 h
[4] = read-out: T.vaginalis_%inb_Rep1
[5] = read-out: T.vaginalis_%inb_Rep2
[6] = NFF fibroblasts, single concentration 5 µg/mL

Structure (SMILES) | T.vaginalis_Absorbance_Rep1 [1] | T.vaginalis_Absorbance_Rep2 [1] | NFF_Activity ([2]; NFF_NS1 screen at 5 µg/mL) | inhibition of growth at 1 µg/mL [3, 4] [%] | inhibition of growth at 1 µg/mL [3, 5] [%] | NFF_Activity [2, 6]
C=Cc1cc(OC)c2c(c1)c(=O)oc1c2cc(OC)c2c(O)ccc([C@H]3O[C@H](C)[C@H](O)[C@H](O)[C@H]3O)c21 [Gilvocarcin V] | 0.79 | 0.706 | I (otherwise these were reported as inactive (I)) | 4.46 | 4.55 | –
C/C(=C\c1csc(C)n1)[C@@H]1C[C@@H]2O[C@@H]2CCC[C@H](C)[C@H](O)[C@@H](C)C(=O)C(C)(C)[C@@H](O)CC(=O)O1 [Epothilone A] | 2.11 | 1.991 | I (otherwise these were reported as inactive (I)) | 71.4 | 87 | –
Cc1cc(O)c(C=O)c2c1C(=O)Oc1c(COC(=O)/C=C/C(=O)O)c(O)c(C(=O)O)c(C)c1O2 [Fumarprotocetraric acid] | 0.953 | 0.839 | I (otherwise these were reported as inactive (I)) | 13.1 | 15.8 | –
C[C@@](O)(/C=C/[C@H]1CC=CC(=O)O1)[C@@H](C[C@@H](O)\C=C/C=C\C=C\CO)OP(=O)(O)O [Fostriecin] | 0.964 | 0.811 | I (otherwise these were reported as inactive (I)) | 13.7 | 13.8 | –
CC(C)[C@H]1C(=O)O[C@H](C(C)C)C(=O)N(C)[C@@H](C(C)C)C(=O)O[C@H](C(C)C)C(=O)N(C)[C@@H](C(C)C)C(=O)O[C@H](C(C)C)C(=O)N1C [Enniatin B] | 0.992 | 0.695 | I (otherwise these were reported as inactive (I)) | 15.2 | 5.42 | –
CC[C@H](C)[C@H]1C(=O)O[C@H](C(C)C)C(=O)N(C)[C@@H](C(C)C)C(=O)O[C@H](C(C)C)C(=O)N(C)[C@@H](C(C)C)C(=O)O[C@H](C(C)C)C(=O)N1C [Enniatin B1] | 0.967 | 0.828 | I (otherwise these were reported as inactive (I)) | 13.9 | 15 | –
CCCCC[C@@H](O)[C@H]1C(=O)O[C@H](C)[C@@H](O)/C=C/C=C/C=C/C=C/C=C(\C)[C@@H](O)C[C@H](O)C[C@H](O)C[C@H](O)C[C@H](O)C[C@H](O)C[C@@H]1O [Filipin III] | 1.003 | 0.794 | I (otherwise these were reported as inactive (I)) | 15.8 | 12.6 | –
CO[C@H]1C[C@@H]2CC[C@@H](C)[C@@](O)(O2)C(=O)C(=O)N2CCCC[C@H]2C(=O)O[C@H]([C@H](C)C[C@@H]2CC[C@@H](OCCO)[C@H](OC)C2)CC(=O)[C@H](C)/C=C(\C)[C@@H](O)[C@@H](OC)C(=O)[C@H](C)C[C@H](C)/C=C/C=C/C=C/1C [Everolimus] | 0.983 | 0.76 | I (otherwise these were reported as inactive (I)) | 14.8 | 10.1 | –
CC1(C)CCC[C@]2(C)[C@@H](C=O)C(C=O)=CC[C@@H]12 [Polygodial] | – | – | – | 13.1 | 13.9 | A (active (A) compounds having >25% inhibitory activity)
CC[C@@H]1C=CC=CC[C@H](C)[C@@H](O)[C@@H](C)C(=O)[C@H](C)[C@@H](O)[C@H](C)C(=O)[C@H](C)[C@@H](O)[C@H](C)C=CC(=O)O[C@H]2[C@@H](C)[C@@H](CC1)O[C@@]1(CC[C@@H](C)[C@@H](C[C@H](C)O)O1)[C@@H]2C [Oligomycin C] | – | – | – | 11.3 | 12.9 | I (otherwise these were reported as inactive (I))
